According to ChEMBL document CHEMBL1201862, “PubChem BioAssay data set” (2004):
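Cultured in 96-well plates, cells were exposed to test compound for 48 hours across five concentrations. GI50 is the concentration that inhibits growth by half.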 Active and inactive are the calls of the source. Rule as the data show it: active = GI50 up to about 1.1 µM and inactive = higher.

Experiments:
Assay in all cases: NCI anticancer screen, dose series, 48 h
IGROV-1 = test system: IGROV-1
A498 = test system: A498
SK-OV-3 = test system: SK-OV-3
SR = test system: SR
LOX IMVI = test system: LOX IMVI
K562 = test system: K562
Hs-578T = test system: Hs-578T
SK-MEL-28 = test system: SK-MEL-28
NCI/ADR-RES = test system: NCI/ADR-RES
A549 = test system: A549
MOLT-4 = test system: MOLT-4
RPMI-8226 = test system: RPMI-8226
COLO 205 = test system: COLO 205
OVCAR-8 = test system: OVCAR-8
SNB-19 = test system: SNB-19
SK-MEL-5 = test system: SK-MEL-5
HCC 2998 = test system: HCC 2998
NCI-H522 = test system: NCI-H522

Measured: GI50

CCOC(=O)c1ccc(NC(=O)O/N=C(/Cl)CCl)cc1
inactive: IGROV-1 > 100 µM | A498 15.2 µM | SK-OV-3 75.3 µM | SR 27.2 µM | LOX IMVI 50.1 µM | K562 25.2 µM | Hs-578T > 100 µM | SK-MEL-28 17.6 µM | NCI/ADR-RES 24.5 µM | A549 37.1 µM | MOLT-4 33.6 µM | RPMI-8226 47.2 µM | COLO 205 39.6 µM | OVCAR-8 41 µM | SNB-19 86.1 µM | SK-MEL-5 31.6 µM | HCC 2998 > 10 µM

CC(=O)OCC1OC(n2c(-c3ccccc3)c(C(C)=O)c(-c3ccc(Cl)cc3)c(C#N)c2=S)C(OC(C)=O)C(OC(C)=O)C1OC(C)=O (centres undefined)
inactive: IGROV-1 > 100 µM | NCI-H522 > 100 µM | A498 > 100 µM | SK-OV-3 > 100 µM | SR > 100 µM | LOX IMVI > 100 µM | K562 > 100 µM | SK-MEL-28 > 100 µM | NCI/ADR-RES > 100 µM | A549 > 100 µM | MOLT-4 > 100 µM | COLO 205 > 100 µM | OVCAR-8 > 100 µM | SNB-19 > 100 µM | SK-MEL-5 21.2 µM | HCC 2998 > 100 µM

COc1ccc(/C=C2\N=C3NC(=O)C(N4CCCCC4)=C(N)N3C2=O)cc1
inactive: IGROV-1 > 100 µM | NCI-H522 > 100 µM | A498 > 100 µM | SK-OV-3 > 100 µM | SR > 100 µM | LOX IMVI > 100 µM | K562 62.4 µM | Hs-578T 47.5 µM | SK-MEL-28 > 100 µM | NCI/ADR-RES > 100 µM | A549 > 100 µM | MOLT-4 > 100 µM | RPMI-8226 > 100 µM | COLO 205 > 100 µM | OVCAR-8 > 100 µM | SNB-19 > 100 µM | SK-MEL-5 > 100 µM | HCC 2998 > 100 µM

O=C(O)CN(c1ccccc1)S(=O)(=O)c1ccc([N+](=O)[O-])cc1
inactive: IGROV-1 > 100 µM | NCI-H522 > 100 µM | A498 > 100 µM | SK-OV-3 > 100 µM | LOX IMVI > 100 µM | K562 > 100 µM | A549 > 100 µM | MOLT-4 > 100 µM | RPMI-8226 > 100 µM | COLO 205 > 100 µM | OVCAR-8 > 100 µM | SNB-19 > 100 µM | SK-MEL-5 > 100 µM

Cc1c(C(=O)C(=O)c2ccccc2)c(C)c(C(=O)C(=O)c2ccccc2)c(C)c1C(=O)C(=O)c1ccccc1
inactive: IGROV-1 > 100 µM | NCI-H522 > 100 µM | SK-OV-3 > 100 µM | SR > 100 µM | K562 > 100 µM | Hs-578T > 100 µM | SK-MEL-28 > 100 µM | NCI/ADR-RES > 100 µM | A549 > 100 µM | MOLT-4 > 100 µM | RPMI-8226 > 100 µM | COLO 205 > 100 µM | OVCAR-8 > 100 µM | SNB-19 > 100 µM | SK-MEL-5 > 100 µM | HCC 2998 > 100 µM

CC1CN=C(N(C(=O)Nc2ccccc2)c2ccccc2)S1 (centres undefined)
inactive: IGROV-1 42.6 µM | A498 10.6 µM | SK-OV-3 > 100 µM | SR 27.2 µM | LOX IMVI 18.8 µM | K562 43.9 µM | Hs-578T 42.5 µM | SK-MEL-28 13.9 µM | NCI/ADR-RES 22 µM | A549 33.4 µM | MOLT-4 19 µM | RPMI-8226 26 µM | COLO 205 59.3 µM | OVCAR-8 40.3 µM | SNB-19 88.1 µM | SK-MEL-5 16.7 µM | HCC 2998 35.9 µM

FC(F)(F)c1ccc2nc(Nc3ccc(Cl)c(Cl)c3)c(-c3ccccc3)nc2c1
inactive: SR 6.64 µM | LOX IMVI 13.8 µM | SK-MEL-28 82.8 µM | A549 17.1 µM | MOLT-4 6.81 µM | RPMI-8226 > 100 µM | COLO 205 61.8 µM | OVCAR-8 21 µM | SNB-19 74 µM | HCC 2998 86.7 µM

COc1ccc(-n2c(=O)n(-c3ccccc3)c(=O)n2-c2ccc(OC)cc2)cc1
inactive: IGROV-1 > 100 µM | NCI-H522 > 100 µM | A498 > 100 µM | SK-OV-3 > 100 µM | LOX IMVI > 100 µM | K562 80.4 µM | SK-MEL-28 > 100 µM | NCI/ADR-RES > 100 µM | A549 > 100 µM | MOLT-4 > 100 µM | RPMI-8226 > 100 µM | COLO 205 > 100 µM | OVCAR-8 > 100 µM | SNB-19 > 100 µM | SK-MEL-5 > 100 µM | HCC 2998 > 100 µM

CCCCC(C)C(OC(=O)CC(CC(=O)O)C(=O)O)C(CC(C)CC(O)CCCCC(O)CC(O)C(C)N)OC(=O)CC(CC(=O)O)C(=O)O (centres undefined)
inactive: IGROV-1 > 100 µM | NCI-H522 > 100 µM | A498 > 100 µM | SK-OV-3 > 100 µM | SR > 100 µM | LOX IMVI > 100 µM | K562 > 100 µM | SK-MEL-28 > 100 µM | A549 > 100 µM | MOLT-4 > 100 µM | RPMI-8226 > 100 µM | COLO 205 > 100 µM | OVCAR-8 > 100 µM | SNB-19 > 100 µM | SK-MEL-5 > 100 µM | HCC 2998 > 100 µM

Clc1cc(Cl)cc(Nc2nc3ccccc3nc2-c2cccs2)c1
inactive: SK-OV-3 31.3 µM | SR 51.2 µM | LOX IMVI 94.6 µM | SK-MEL-28 > 10 µM | A549 38.5 µM | MOLT-4 47.2 µM | RPMI-8226 40 µM | COLO 205 7.23 µM | OVCAR-8 13.3 µM | SNB-19 > 10 µM | HCC 2998 99.3 µM

O=C1C[C@@]23CCC4(CC2=CCC[C@H]3O1)OCCO4
inactive: IGROV-1 > 100 µM | NCI-H522 > 100 µM | A498 > 100 µM | SK-OV-3 > 100 µM | SR > 100 µM | LOX IMVI > 100 µM | K562 > 100 µM | Hs-578T > 100 µM | SK-MEL-28 > 100 µM | NCI/ADR-RES > 100 µM | A549 > 100 µM | MOLT-4 > 100 µM | RPMI-8226 > 100 µM | COLO 205 > 100 µM | SNB-19 > 100 µM | SK-MEL-5 > 100 µM | HCC 2998 > 100 µM

COc1cc(OC)c(OC)cc1/C=C/c1nc2ccccc2s1
inactive: IGROV-1 > 100 µM | NCI-H522 40.6 µM | A498 86.5 µM | SK-OV-3 > 100 µM | LOX IMVI > 100 µM | K562 5.42 µM | Hs-578T 67 µM | SK-MEL-28 > 100 µM | NCI/ADR-RES > 100 µM | A549 > 100 µM | MOLT-4 34.2 µM | RPMI-8226 31 µM | COLO 205 > 100 µM | OVCAR-8 > 100 µM | SNB-19 > 100 µM | SK-MEL-5 > 100 µM | HCC 2998 > 100 µM
